Data published in PubChem BioAssay AID248 (DTP/NCI, 2004).
Values joined by “and” are separate entries in the source; they are usually repeats but may differ in a detail not shown here. Identical values can stand only once. Inconclusive results and toxic doses are left out. Cut-off read from the data, not from the text of the source: active = T/C of 150% or more; inactive = T/C below 125%.

Tested on: L1210 leukemia ip in BDF1 mice, survival T/C
Experiment: NCI In Vivo Anticancer Drug Screen. Data for tumor model L1210 Leukemia (intraperitoneal) in B6D2F1 (BDF1) mice
Settings: endpoint: mean survival time, higher = longer survival
Procedure, shortened: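 Transplantable tumor model; survival measured in treated vs vehicle control mice. Value = treated/control.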

[1] = dose: 100.0 mg/kg/injection, schedule: Q01DX001 (ip), vehicle: other
[2] = dose: 200.0 mg/kg/injection, schedule: Q01DX001 (ip), vehicle: other
[3] = dose: 400.0 mg/kg/injection, schedule: Q01DX001 (ip), vehicle: other
[4] = dose: 100.0 mg/kg/injection, schedule: Q01DX009 (ip), vehicle: Klucel (hydroxypropylcellulose) (HPC)
[5] = dose: 200.0 mg/kg/injection, schedule: Q01DX009 (ip), vehicle: Klucel (hydroxypropylcellulose) (HPC)
[6] = dose: 75.0 mg/kg/injection, schedule: Q01DX001 (ip), vehicle: saline
[7] = dose: 100.0 mg/kg/injection, schedule: Q01DX001 (ip), vehicle: saline
[8] = dose: 100.0 mg/kg/injection, schedule: Q04DX003 (ip), vehicle: Klucel (hydroxypropylcellulose) (HPC)
[9] = dose: 200.0 mg/kg/injection, schedule: Q04DX003 (ip), vehicle: Klucel (hydroxypropylcellulose) (HPC)
[10] = dose: 400.0 mg/kg/injection, schedule: Q04DX003 (ip), vehicle: Klucel (hydroxypropylcellulose) (HPC)

Measured: T/C

C/C(=C\Cn1cc([N+](=O)[O-])ccc1=O)CCC(=O)O
inactive: dose: 100.0 mg/kg/injection, schedule: Q01DX009 (ip), vehicle: water 108 % of control | dose: 100.0 mg/kg/injection, schedule: Q04DX003 (ip), vehicle: other 102 % of control | dose: 200.0 mg/kg/injection, schedule: Q01DX009 (ip), vehicle: water 96 % of control | dose: 200.0 mg/kg/injection, schedule: Q04DX003 (ip), vehicle: other 98 % of control | dose: 400.0 mg/kg/injection, schedule: Q01DX009 (ip), vehicle: water 97 % of control | dose: 400.0 mg/kg/injection, schedule: Q04DX003 (ip), vehicle: other 102 % of control

Oc1ccccc1C=NCCN=Cc1ccccc1O.[Zn+2]
inactive: [1] 103 % of control | [2] 114 % of control | [3] 100 % of control

CCOC(CNC(=O)c1cccc(S(=O)(=O)F)c1)OCC
inactive: dose: 100.0 mg/kg/injection, schedule: Q04DX003 (ip), vehicle: saline + alcohol 98 % of control | dose: 200.0 mg/kg/injection, schedule: Q04DX003 (ip), vehicle: saline + alcohol 96 % of control

NC(N)=N/N=C/C/C=N/N=C(N)N
inactive: dose: 15.0 mg/kg/injection, schedule: Q01DX Z (ip), vehicle: saline 97 % of control | dose: 30.0 mg/kg/injection, schedule: Q01DX Z (ip), vehicle: saline 100 % of control | dose: 60.0 mg/kg/injection, schedule: Q01DX Z (ip), vehicle: saline 96 % of control | dose: 120.0 mg/kg/injection, schedule: Q01DX Z (ip), vehicle: saline 100 % of control | dose: 120.0 mg/kg/injection, schedule: Q01DX Z (oral), vehicle: saline 102 % of control | dose: 240.0 mg/kg/injection, schedule: Q01DX Z (oral), vehicle: saline 102 % of control | dose: 480.0 mg/kg/injection, schedule: Q01DX Z (oral), vehicle: saline 107 % of control | dose: 960.0 mg/kg/injection, schedule: Q01DX Z (oral), vehicle: saline 103 % of control

COC(=O)c1cc(=O)[nH]n1C
inactive: [4] 104 % of control | [5] 104 % of control | dose: 400.0 mg/kg/injection, schedule: Q01DX009 (ip), vehicle: Klucel (hydroxypropylcellulose) (HPC) 101 % of control

c1cc[nH]c1
inactive: [6] 100 % of control

C/C(=N/S(=O)(=O)c1ccc(C)cc1)OCCN(C)C
inactive: dose: 3.0 mg/kg/injection, schedule: Q01DX009 (ip), vehicle: saline with Tween-80 100 % of control | dose: 3.0 mg/kg/injection, schedule: Q04DX003 (ip), vehicle: saline with Tween-80 98 % of control | dose: 6.0 mg/kg/injection, schedule: Q01DX009 (ip), vehicle: saline with Tween-80 95 % of control | dose: 6.0 mg/kg/injection, schedule: Q04DX003 (ip), vehicle: saline with Tween-80 101 % of control | dose: 12.5 mg/kg/injection, schedule: Q04DX003 (ip), vehicle: saline with Tween-80 90 % of control

ClC(Cl)(Cl)C/C=C\CBr
inactive: dose: 25.0 mg/kg/injection, schedule: Q01DX009 (ip), vehicle: acetone 98 % of control | dose: 50.0 mg/kg/injection, schedule: Q01DX009 (ip), vehicle: acetone 102 % of control | dose: 50.0 mg/kg/injection, schedule: Q04DX003 (ip), vehicle: acetone 97 % of control | dose: 100.0 mg/kg/injection, schedule: Q01DX001 (ip), vehicle: acetone 89 % of control | dose: 100.0 mg/kg/injection, schedule: Q01DX009 (ip), vehicle: acetone 93 % of control | dose: 100.0 mg/kg/injection, schedule: Q04DX003 (ip), vehicle: acetone 92 % of control | dose: 200.0 mg/kg/injection, schedule: Q01DX001 (ip), vehicle: acetone 91 % of control

C[N+](C)(Cc1ccccc1)Cc1ccccc1
inactive: dose: 5.0 mg/kg/injection, schedule: Q01DX001 (ip), vehicle: saline 96 % of control | dose: 10.0 mg/kg/injection, schedule: Q01DX001 (ip), vehicle: saline 98 % of control | dose: 20.0 mg/kg/injection, schedule: Q01DX001 (ip), vehicle: saline 102 % of control | dose: 40.0 mg/kg/injection, schedule: Q01DX001 (ip), vehicle: saline 102 % of control | [6] 105 % of control | dose: 80.0 mg/kg/injection, schedule: Q01DX001 (ip), vehicle: saline 104 % of control

O=C(O)/C(=C\c1cccnc1)NC(=O)c1ccccc1
inactive: dose: 100.0 mg/kg/injection, schedule: Q04DX002 (ip), vehicle: Klucel (hydroxypropylcellulose) (HPC) 90 % of control | dose: 200.0 mg/kg/injection, schedule: Q04DX002 (ip), vehicle: Klucel (hydroxypropylcellulose) (HPC) 101 % of control | dose: 400.0 mg/kg/injection, schedule: Q04DX002 (ip), vehicle: Klucel (hydroxypropylcellulose) (HPC) 96 % of control

[I][Bi]([I])[I]
inactive: dose: 50.0 mg/kg/injection, schedule: Q01DX001 (ip), vehicle: carboxymethylcellulose (CMC) 114 % of control | dose: 100.0 mg/kg/injection, schedule: Q01DX001 (ip), vehicle: carboxymethylcellulose (CMC) 105 % of control | [7] 108 % of control | dose: 200.0 mg/kg/injection, schedule: Q01DX001 (ip), vehicle: carboxymethylcellulose (CMC) 102 % of control | dose: 200.0 mg/kg/injection, schedule: Q01DX001 (ip), vehicle: saline 94 % of control | dose: 400.0 mg/kg/injection, schedule: Q01DX001 (ip), vehicle: saline 97 % of control

C[CH2][Ge]1([CH2]C)[CH2]CC2(C[CH2]1)NC(=O)NC2=O
inactive: dose: 100.0 mg/kg/injection, schedule: Q04DX002 (ip), vehicle: saline 103 % of control | dose: 200.0 mg/kg/injection, schedule: Q04DX002 (ip), vehicle: saline 100 % of control | dose: 400.0 mg/kg/injection, schedule: Q04DX002 (ip), vehicle: saline 96 % of control

O=C(NO)Nc1ccc([N+](=O)[O-])cc1
inactive: dose: 100.0 mg/kg/injection, schedule: Q01DX001 (ip), vehicle: saline with Tween-80 97 % of control | dose: 100.0 mg/kg/injection, schedule: Q01DX009 (ip), vehicle: saline with Tween-80 93 % of control | dose: 200.0 mg/kg/injection, schedule: Q01DX001 (ip), vehicle: saline with Tween-80 90 % of control | dose: 200.0 mg/kg/injection, schedule: Q01DX009 (ip), vehicle: saline with Tween-80 89 % of control | dose: 400.0 mg/kg/injection, schedule: Q01DX001 (ip), vehicle: saline with Tween-80 99 % of control | dose: 400.0 mg/kg/injection, schedule: Q01DX009 (ip), vehicle: saline with Tween-80 98 % of control

O=C1CCCCC1O (stereo not drawn)
inactive: [1] 116 % of control | [2] 103 % of control | [3] 95 % of control

CC(C)C(C(=O)O)N1C(=O)C2C3C=CC(C3)C2C1=O (stereo not drawn)
inactive: dose: 100.0 mg/kg/injection, schedule: Q04DX003 (ip), vehicle: saline with Tween-80 102 % of control | dose: 200.0 mg/kg/injection, schedule: Q04DX003 (ip), vehicle: saline with Tween-80 102 % of control | dose: 400.0 mg/kg/injection, schedule: Q04DX003 (ip), vehicle: saline with Tween-80 97 % of control

CC1CC(N2CSC(=S)N(C3CC(C)CC(C)(C)C3)C2)CC(C)(C)C1 (stereo not drawn)
inactive: dose: 25.0 mg/kg/injection, schedule: Q01DX009 (ip), vehicle: Klucel (hydroxypropylcellulose) (HPC) 93 % of control | [4] 86 % of control and 90 % of control | [8] 89 % of control | [9] 94 % of control | [10] 91 % of control

c1ccc(C[Si](c2ccccc2)c2ccccc2)cc1
inactive: [8] 107 % of control | [9] 100 % of control | [10] 98 % of control

COC(=O)c1ccccc1NC(=O)Nc1cccc(Cl)c1C
inactive: [4] 86 % of control | [5] 95 % of control

COc1c(O)ccc2c1-c1c3c(cc4c1C(C2)NCC4)OCO3 (stereo not drawn)
inactive: [7] 102 % of control

CCCCCC(CN(C)C)C(=O)/C=C/c1ccccc1 (stereo not drawn)
inactive: dose: 50.0 mg/kg/injection, schedule: Q01DX009 (sc), vehicle: other 95 % of control | dose: 100.0 mg/kg/injection, schedule: Q01DX001 (sc), vehicle: steriod suspending solution 93 % of control | dose: 100.0 mg/kg/injection, schedule: Q01DX009 (sc), vehicle: other 102 % of control | dose: 100.0 mg/kg/injection, schedule: Q04DX003 (sc), vehicle: other 101 % of control | dose: 200.0 mg/kg/injection, schedule: Q01DX001 (sc), vehicle: steriod suspending solution 93 % of control | dose: 200.0 mg/kg/injection, schedule: Q04DX003 (sc), vehicle: other 90 % of control | dose: 400.0 mg/kg/injection, schedule: Q01DX001 (sc), vehicle: steriod suspending solution 100 % of control
